Results on 7 compounds are retold here after PubChem BioAssay (NCI).

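Following 48 hours of exposure in 96-well plates, responses at five concentrations were used to interpolate endpoints linearly. The concentration for full growth arrest is given as TGI.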

Test systems include LOX IMVI melanoma; HL-60(TB) leukemia; SNB-75 CNS; A498 renal; SF-539 CNS; NCI-H226 lung; U251 CNS; HCC-2998 colon; SR leukemia; MCF7 breast; NCI-H23 lung; HT29 colon; SN12C renal; SK-MEL-2 melanoma; M14 melanoma; MDA-MB-231 breast; UACC-62 melanoma; T-47D breast; PC-3 prostate; SK-MEL-28 melanoma.
Holding throughout (assay): NCI-60 cell line screen, 48 h

On to `COc1ccc(-n2c(N)c(C#N)c(C#N)c2-c2ccccc2)cc1`, for which the TGI with LOX IMVI melanoma was over 100 µM; in the assay with HL-60(TB) leukemia, over 100 µM; in the assay with SNB-75 CNS, 68.6 µM; in the assay with A498 renal it was over 100 µM; in the assay on SF-539 CNS, over 100 µM; in the assay on NCI-H226 lung, over 100 µM. Besides, the TGI in the assay with U251 CNS, in the assay with HCC-2998 colon, in the assay with SR leukemia, with MCF7 breast, with NCI-H23 lung and with HT29 colon was over 100 µM each time. Further, the TGI in the assay on SN12C renal, in the assay on SK-MEL-2 melanoma, in the assay on M14 melanoma, with MDA-MB-231 breast, in the assay on UACC-62 melanoma and in the assay with T-47D breast was over 100 µM in each case. This compound also gave a TGI with PC-3 prostate of over 100 µM.

`O=C(Nc1ccc(Cl)c(Cl)c1)N1N=C2c3ccccc3CCC2C1c1ccc(Cl)cc1` (centres undefined): the TGI in the assay with LOX IMVI melanoma, in the assay on HL-60(TB) leukemia, in the assay with SNB-75 CNS, in the assay with A498 renal, in the assay with SF-539 CNS and in the assay with NCI-H226 lung was over 100 µM throughout. Besides, the TGI in the assay on U251 CNS, in the assay on HCC-2998 colon, in the assay with SK-MEL-28 melanoma, in the assay on SR leukemia, in the assay with MCF7 breast and in the assay on NCI-H23 lung was over 100 µM in each case. The TGI with HT29 colon, in the assay with SN12C renal, with SK-MEL-2 melanoma, with M14 melanoma, with MDA-MB-231 breast and in the assay on UACC-62 melanoma was over 100 µM in each case. For the same compound, the TGI in the assay with T-47D breast and in the assay with PC-3 prostate was over 100 µM each time.

For `CC(C)(C)c1ccc(/C=N/NC(=O)CSCC(=O)N/N=C/c2ccc(C(C)(C)C)cc2)cc1`, the TGI with HL-60(TB) leukemia amounted to 5.21 µM; in the assay on SNB-75 CNS it was 20.1 µM; with A498 renal it was 8.67 µM; with NCI-H226 lung it was 4.93 µM; with U251 CNS, 5.87 µM; with HCC-2998 colon, 4.8 µM. Besides, the TGI in the assay on SK-MEL-28 melanoma was found to be 20.6 µM; in the assay on SR leukemia it was 3.76 µM; with MCF7 breast, 6.05 µM; in the assay on NCI-H23 lung, 6.01 µM; in the assay on HT29 colon it was 3.87 µM; in the assay with SN12C renal, 4.82 µM. Moreover, the TGI was found to be 5.72 µM in the assay on SK-MEL-2 melanoma; 3.89 µM in the assay on M14 melanoma; 2.43 µM in the assay on MDA-MB-231 breast; 32 µM with UACC-62 melanoma; 26.3 µM in the assay with T-47D breast; 18.2 µM with PC-3 prostate.

Consider `NS(=O)(=O)c1ccc(Nc2c3ccccc3nc3c(C(=O)NCCO)cccc23)cc1`, for which the TGI in the assay on LOX IMVI melanoma is 0.267 µM; with HL-60(TB) leukemia, over 1 µM; in the assay on A498 renal, 0.229 µM; in the assay with SF-539 CNS, 0.27 µM; in the assay on NCI-H226 lung it was 0.296 µM; in the assay with U251 CNS, 0.205 µM. Also, the TGI with HCC-2998 colon was 0.333 µM; with SK-MEL-28 melanoma it was 0.338 µM; with SR leukemia, 0.0607 µM; with MCF7 breast it was 0.176 µM; in the assay on NCI-H23 lung, 0.293 µM; in the assay on HT29 colon, 0.302 µM. Moreover, the TGI was found to be 0.557 µM with SN12C renal; 0.334 µM with SK-MEL-2 melanoma; 0.326 µM in the assay with M14 melanoma; 0.362 µM in the assay with MDA-MB-231 breast; 0.303 µM in the assay on UACC-62 melanoma; 0.169 µM with T-47D breast. The TGI in the assay on PC-3 prostate came out at 0.432 µM.

With `C#CCCCOc1ncccn1`, the TGI with LOX IMVI melanoma, in the assay on HL-60(TB) leukemia, in the assay on A498 renal, in the assay on SF-539 CNS, in the assay with NCI-H226 lung and in the assay with U251 CNS was over 100 µM throughout. The TGI in the assay on HCC-2998 colon, in the assay on SK-MEL-28 melanoma, in the assay with SR leukemia, in the assay on MCF7 breast, with NCI-H23 lung and with HT29 colon was over 100 µM throughout. The TGI in the assay with SN12C renal, in the assay with SK-MEL-2 melanoma, in the assay on M14 melanoma, in the assay on MDA-MB-231 breast, with UACC-62 melanoma and with T-47D breast was over 100 µM throughout. The TGI with PC-3 prostate is over 100 µM.

For the compound `C/C(=N\NC(=S)N(C)CCN(C)C(=S)N/N=C(\C)c1ccccn1)c1ccccn1`, the TGI with LOX IMVI melanoma is 22.6 µM; with HL-60(TB) leukemia, 3.95 µM; in the assay on SNB-75 CNS it was 7.59 µM; in the assay on A498 renal, 3 µM; with SF-539 CNS it was 11.8 µM; in the assay on NCI-H226 lung, 3.48 µM. Moreover, the TGI in the assay with U251 CNS turned out to be 18.9 µM; with HCC-2998 colon, 38 µM; with SK-MEL-28 melanoma it was 19.8 µM; in the assay with SR leukemia it was 3.71 µM; in the assay on MCF7 breast it was 18.3 µM; with NCI-H23 lung, 28.5 µM. The TGI with HT29 colon was 24.4 µM; with SN12C renal, 6.91 µM; in the assay on SK-MEL-2 melanoma, 24.4 µM; in the assay on M14 melanoma it was over 100 µM; in the assay on MDA-MB-231 breast, 13.1 µM; with UACC-62 melanoma, 8.07 µM. Besides, the TGI with T-47D breast came out at 19 µM; in the assay on PC-3 prostate it was 18.8 µM.

Turning to `c1ccc(C(=NNc2cnc3ccccc3n2)c2ccccn2)cc1`, the TGI was 12.3 µM in the assay on HL-60(TB) leukemia; 31.4 µM in the assay with SNB-75 CNS; over 100 µM in the assay with A498 renal; 17.4 µM in the assay with SF-539 CNS; 40.6 µM in the assay on NCI-H226 lung; 23.8 µM in the assay with U251 CNS. In addition, the TGI came to 19.9 µM in the assay with HCC-2998 colon; 55.5 µM in the assay on SK-MEL-28 melanoma; 10.9 µM with SR leukemia; 12.2 µM in the assay on MCF7 breast; 14.1 µM in the assay with NCI-H23 lung; 17.7 µM in the assay with HT29 colon. The TGI was determined as 24 µM with SN12C renal; 26.2 µM in the assay with SK-MEL-2 melanoma; 10.9 µM in the assay with M14 melanoma; 26.9 µM in the assay on MDA-MB-231 breast; 20.2 µM with UACC-62 melanoma; 33.5 µM in the assay with T-47D breast. In the assay on PC-3 prostate, the TGI is 19.2 µM.
